In patent US20110124006A1, “METHOD FOR SCREENING OF THERAPEUTIC AGENT FOR CANCER” (Hismitsu Pharmaceutical Co., Inc., priority 2008, published 2011):

What was measured:
SK-N-BE cells [1] = experiment: MTT assay, proliferation of SK-N-BE cells after siRNA introduction; assay type: cell-based; settings: vs negative control siRNA, day 4 and day 5 p<0.01
Procedure: (§1) To SK-N-BE cells derived from neuroblastoma, siRNA against NLRR1 was introduced so as to suppress the expression of NLRR1. As the siRNA, RNA fragment of the base sequences shown SEQ ID NOs: 3 and 4 were annealed and used.
(§2) After siRNA was introduced, the cells were cultured, and the cell proliferation was quantified by the MTT assay over time. As a control, cells into which Silencer (registered trademark) Negative Control #1 siRNA (Ambion) was introduced were used. FIG. 11 is a graph showing the proliferation of cells. […] FIG. 12 is a photograph of an immunoblot in which the expression of NLRR1 in the cells into which siRNA against NLRR1 was introduced and the control cells were detected by using an anti-NLRR1 rabbit polyclonal antibody. The anti-NLRR1 rabbit polyclonal antibody was prepared by immunizing a rabbit with a synthetic peptide corresponding to 693-712 residues of an amino acid sequence of NLRR1 (SEQ ID NO: 2) as an antigen. The result when an anti-actin antibody was used as the loading control is also shown.

NLRR1 = experiment: Immunoblot of NLRR1 expression after siRNA introduction; assay type: cell-based; settings: SK-N-BE cells, anti-NLRR1 rabbit polyclonal antibody
Procedure: as §1, §2

SHEP21N cells = experiment: MTT assay, proliferation of SHEP21N cells forced to express MYCN; assay type: cell-based; settings: absence of tetracycline (expression of MYCN increased)
From the text: To SHEP21N cells that were forced to express MYCN in the absence of tetracycline, siRNA against NLRR1 was introduced, and the cell proliferation was quantified by the MTT assay over time. FIG. 15 is a graph showing the proliferation of cells. In the absence of tetracycline (expression of MYCN was increased), the proliferation of cells was promoted as compared with the case in the presence of tetracycline (expression of MYCN was suppressed). When Silencer (registered trademark) Negative Control #1 siRNA was introduced in the absence of tetracycline (expression of MYCN was increased) as a control, the proliferation rate of cells was not changed.

MYCN expression [2] = experiment: Immunoblot of EGF-induced MYCN expression in SK-N-BE cells after siRNA introduction; assay type: cell-based; settings: 10 hours, 10 ng/ml EGF
Procedure: SK-N-BE cells, SK-N-BE cells into which siRNA against NLRR1 was introduced, and SK-N-BE cells into which Silencer (registered trademark) Negative Control #1 siRNA was introduced were cultured for 10 hours in the presence of 10 ng/ml EGF, and the cells were collected. Next, these cells were subjected to an immunoblot method using an anti-MYCN antibody, an anti-NLRR1 rabbit polyclonal antibody and an anti-actin antibody, and expression of MYCN and NLRR1 in the protein level was detected. FIG. 16 is a photograph showing a result of immunoblot. The result of the cells into which control siRNA was introduced corresponds to “mock” in FIG. 16.

[3] = system: SK-N-AS cell line continuously expressing NLRR1; experiment: Flow cytometry of sub-G1 cells (apoptosis) under serum-free conditions; assay type: cell-based; settings: SK-N-AS line continuously expressing NLRR1, serum-free 36 hours, PI staining
From the text: It is known that in the SK-N-AS neuroblastoma cell line, cell death is induced when serum is removed, and that the number of sub-G1 cells is increased from the flow cytometry analysis. SK-N-AS cells into which an empty vector plasmid was introduced (corresponding to “mock” on the left in FIG. 17), a cell line continuously expressing NLRR1 obtained by introducing a plasmid encoding NLRR1 into SK-N-AS cells (corresponding to “+NLRR1” in the middle of FIG. 17), and cells obtained by introducing siRNA against NLRR1 into this cell line continuously expressing NLRR1 (corresponding to “+siRNA+NLRR1” on the right of FIG. 17) were PI stained before and after the cells were cultured under the serum-free conditions for 36 hours, and analyzed by flow cytometry. The rate of the sub-G1 cells was evaluated as a rate of apoptosis. […] FIG. 18 is a graph showing the proportion of the number of sub-G1 cells to the total number of cells before and after culturing under the serum free conditions of respective cells based on the results of FIG. 17, in which the unit of the ordinate axis is %.

[4] = system: SK-N-BE cells, NLF cells, SH-SY5Y cells, SMS-SAN cells; experiment: MTT assay, EGF-induced proliferation of neuroblastoma-derived cells; assay type: cell-based; settings: SK-N-BE cells with siRNA, 10 ng/ml EGF
Procedure: SK-N-BE cells, NLF cells, SH-SY5Y cells, SMS-SAN cells, which are cell lines derived from neuroblastoma, and SK-N-BE cells into which siRNA against NLRR1 was introduced were cultured in the presence and absence of 10 ng/ml EGF, and the cell proliferation was quantified by the MTT assay over time. FIG. 28 is a graph showing the cell proliferation, showing the change fold ratio of the proliferation of cells in the presence of EGF to the proliferation of cells in the absence of EGF.

[5] = system: SK-N-BE cells forced to express NLRR1; settings: SK-N-BE cells forced to express NLRR1, presence vs absence of U0126, over time
Procedure: SK-N-BE cells that were forced to express NLRR1 were cultured in the presence and absence of ERK1/2 (ERK1 and ERK2) inhibitor, U0126. Furthermore, as a control, SK-N-BE cells into which a plasmid encoding NLRR1 was not introduced were cultured in the absence of U0126. The proliferation of these cells was quantified by an MTT assay over time. FIG. 23 is a graph showing a proliferation of cells. In the drawing, A denotes the proliferation of SK-N-BE cells forced to express NLRR1; B denotes the proliferation of SK-N-BE cells forced to express NLRR1 in the presence of U0126; and C denotes the proliferation of control cells.

MYCN expression [6] = experiment: Immunoblot of EGF-induced MYCN expression in SK-N-BE cells with pathway inhibitors; assay type: cell-based; settings: six hours, 10 ng/ml EGF, inhibitor concentrations shown in FIG. 27
Procedure: SK-N-BE cells were cultured for six hours in the presence of 10 ng/ml EGF and in the presence of an EGFR inhibitor AG1478, a Ras inhibitor FTI277, an ERK1/2 inhibitor U0126, a PI3Kinase inhibitor LY294002, a INK inhibitor SP600125 or a p38MAPK inhibitor SB203580 in each concentration shown in FIG. 27. Next, respective cells were collected, and the expression of MYCN was analyzed by an immunoblot method using an anti-MYCN antibody and an anti-actin antibody. FIG. 27 is a photograph showing a result of an immunoblot.

MYCN protein expression = experiment: Immunoblot of MYCN protein induced by NLRR1 expression in SK-N-BE cells; assay type: cell-based; settings: NLRR1 plasmid 1000 ng/ml, 12 hours, 1 μM AG1478 or 2 μM U0126
Procedure: An expression plasmid of NLRR1 tagged with a myc tag was introduced into SK-N-BE cells at the concentration of 1000 ng/ml. The cells were cultured for 12 hours in the presence of 1 μM of EGFR inhibitor AG1478 or 2 μM of ERK1/2 inhibitor U0126, and then the cells were collected and subjected to an immunoblot method using an anti-myc antibody, an anti-MYCN antibody and an anti-actin antibody. FIG. 34 is a photograph showing a result of an immunoblot.

SK-N-BE cells [7] = experiment: MTT assay, proliferation of SK-N-BE cells in the presence of EGF; assay type: cell-based; settings: 10 ng/ml EGF plus 5 μM inhibitor, vs EGF-only control, T-test p<0.01
Procedure: SK-N-BE cells were cultured in the presence of 10 ng/ml EGF (control, which corresponds to “mock” in FIG. 26), in the presence of 10 ng/ml EGF and 5 μM of EGFR inhibitor AG1478, as well as in the presence of 10 ng/ml EGF and 5 μM of Ras inhibitor FTI277, and the cell proliferation was quantified by the MTT assay over time. FIG. 26 is a graph showing the proliferation of cells.

[8] = system: phosphorylation of EGFR and ERK; experiment: Western blotting of EGFR and ERK phosphorylation in MCF-7 cells forced to express NLRR1; assay type: cell-based; settings: MCF-7 cells forced to express NLRR1, 10 mM cyclodextrin 30 minutes 37° C., then EGF three minutes
Procedure: The effect of NLRR1 on EGF signal transduction in cells treated with cyclodextrin (methyl-β-cyclodextrin, mβCD) that inhibits lipid raft was examined. FIG. 39 is a photograph showing a result of an immunoblot. […] The cells were washed with the medium, and cultured for three minutes in a medium containing EGF with different concentrations. Then, the phosphorylation of EGFR and ERK was analyzed by Western blotting. With the expression of NLRR1, the enhancement of phosphorylation of EGFR and ERK by EGF was detected. […] From the result, it has been clarified that the enhancement of an EGF signal by NLRR1 needs the structure of lipid raft. Thus, it is thought that treatment of cancer using the combination of an antibody inhibiting NLRR1 and an inhibitor of lipid raft is effective.

## siRNA against NLRR1: annealed RNA fragments of SEQ ID NOs: 3 and 4, suppresses the expression of NLRR1 (chain 1 UCUUGGUUGAGCUGUGUAGUU; chain 2 AACUACACAGCUCAACCAAGA; RNA, backbone not given here; listed as Homo sapiens)
SK-N-BE cells [1]
  proliferation of cells (MTT assay): the proliferation of cells is suppressed
NLRR1
  expression of NLRR1 (immunoblot): the expression of NLRR1 was suppressed
SHEP21N cells
  proliferation of cells due to increased MYCN expression (MTT assay): the proliferation of cells due to the increase in the MYCN expression did not occur
MYCN expression [2]
  induction of the expression of MYCN by EGF treatment (immunoblot): the induction of the expression of MYCN by EGF treatment was suppressed
[3]
  apoptosis (proportion of sub-G1 cells): the increase in the apoptosis was observed
[4]
  EGF-induced cell proliferation (MTT assay, fold ratio with vs without EGF): EGF-induced cell proliferation was remarkably suppressed

## N#CC(=C(/N)Sc1ccccc1N)/C(C#N)=C(\N)Sc1ccccc1N [U0126]
[5]
  proliferation of cells (MTT assay): the cell proliferation was suppressed
MYCN expression [6]
  expression increase of MYCN by the induction of EGF (immunoblot): expression increase of MYCN by the induction of EGF was inhibited
MYCN protein expression
  expression induction of MYCN protein by the expression of NLRR1 (immunoblot): expression induction of MYCN protein by the expression of NLRR1 is suppressed

## COc1cc2ncnc(Nc3cccc(Cl)c3)c2cc1OC [AG1478]
SK-N-BE cells [7]
  proliferation of cells (MTT assay): the proliferation of cells is suppressed
MYCN expression [6]
  expression increase of MYCN by the induction of EGF (immunoblot): expression increase of MYCN by the induction of EGF was inhibited
MYCN protein expression
  expression induction of MYCN protein by the expression of NLRR1 (immunoblot): expression induction of MYCN protein by the expression of NLRR1 is suppressed

## methyl-β-cyclodextrin [mβCD]
[8]
  enhancement of phosphorylation of EGFR and ERK by NLRR1: the enhancement of phosphorylation of EGFR and ERK by NLRR1 was not observed

## COC(=O)[C@H](CCSC)NC(=O)c1ccc(NC[C@@H](N)CS)cc1-c1ccccc1 [FTI277]
SK-N-BE cells [7]
  proliferation of cells (MTT assay): the proliferation of cells is suppressed
MYCN expression [6]
  expression increase of MYCN by the induction of EGF (immunoblot): expression increase of MYCN by the induction of EGF was inhibited

## C[S+]([O-])c1ccc(-c2nc(-c3ccncc3)c(-c3ccc(F)cc3)[nH]2)cc1 (stereo not shown) [SB203580]
MYCN expression [6]
  expression increase of MYCN by the induction of EGF (immunoblot): expression increase of MYCN by the induction of EGF was not inhibited
